Measurements taken from ChEMBL document CHEMBL5214928, “DEAD-Box Helicase DDX3X as a Host Target against Emerging Viruses: New Insights for Medicinal Chemical Approaches” (J Med Chem, 2022).

Legend:
[1] = target: T1, ATP-dependent RNA helicase DDX3X (Homo sapiens, UniProt O00571); experiment: Binding affinity to DDX3X (unknown origin) assessed as inhibition constant
[2] = Selectivity index, ratio of CC50 for African green monkey Vero cells to EC50 for WNV infected in African green monkey Vero cells; type: toxicity; details: read-out: Ratio CC50/EC50
[3] = tested on: Hepatitis C virus; experiment: Antiviral activity against HCV-1 infected in human Huh-7 cells assessed as reduction in viral replication; type: functional, organism-based, Hepacivirus hominis; details: genotype 1, Huh-7
[4] = tested on: Respiratory syncytial virus; experiment: Antiviral activity against RSV infected in African green monkey Vero cells assessed as reduction in viral replication incubated for 22 hrs by plaque formation assay; type: functional, organism-based; details: human respiratory syncytial virus
[5] = tested on: Zika virus; experiment: Antiviral activity against ZIKV infected in African green monkey Vero cells assessed as reduction in viral replication incubated for 22 hrs by plaque assay; type: functional, organism-based
[6] = Selectivity index, ratio of CC50 for African green monkey Vero cells to EC50 for ZIKV infected in African green monkey Vero cells; type: toxicity; details: read-out: Ratio CC50/EC50
[7] = tested on: SARS-CoV-2; experiment: Antiviral activity against SARS-CoV-2 isolate 2019-nCoV/Italy-INMI1 infected in African green monkey Vero E6 cells assessed as reduction in viral replication at MOI of 0.01 incubated for 5 days by qRT-PCR analysis; type: functional, organism-based; details: Severe acute respiratory syndrome coronavirus 2, 2019-nCoV/Italy-INMI1, Vero C1008, 120 h
[8] = tested on: West Nile virus; experiment: Antiviral activity against WNV infected in African green monkey Vero cells assessed as reduction in viral replication incubated for 22 hrs by plaque formation assay; type: functional, organism-based
[9] = tested on: Huh-7; experiment: Cytotoxicity against human Huh-7 cells assessed as reduction in cell viability; type: functional
[10] = Selectivity index, ratio of CC50 for African green monkey Vero cells to EC50 for DENV-2 infected in African green monkey Vero cells; type: toxicity; details: read-out: Ratio CC50/EC50
[11] = Selectivity index, ratio of CC50 for African green monkey Vero cells to EC50 for hPIV-3 infected in African green monkey Vero cells; type: toxicity; details: read-out: Ratio CC50/EC50
[12] = Half life in mouse administered intraperitoneally; type: ADME; details: in vivo, route ip
[13] = Selectivity index, ratio of CC50 for human Huh-7 cells to EC50 for HCV-1 infected in human Huh-7 cells; type: toxicity, cell-based; details: read-out: Ratio CC50/EC50
[14] = Cytotoxicity against African green monkey Vero cells assessed as reduction in cell viability incubated for 22 hrs by XTT assay; type: toxicity, cell-based; details: chlorocebus sabaeus
[15] = tested on: Human respirovirus 3; experiment: Antiviral activity against hPIV-3 infected in African green monkey Vero cells assessed as reduction in viral replication incubated for 22 hrs by plaque formation assay; type: functional, organism-based; details: Human respirovirus 3, Vero
[16] = Cytotoxicity against African green monkey Vero E6 cells assessed as reduction in cell viability; type: toxicity, cell-based, Vero C1008; details: chlorocebus sabaeus
[17] = tested on: dengue virus type 2; experiment: Antiviral activity against DENV-2 infected in African green monkey Vero cells assessed as reduction in viral replication incubated for 22 hrs by plaque assay; type: functional, organism-based
[18] = Selectivity index, ratio of CC50 for African green monkey Vero cells to EC50 for RSV infected in African green monkey Vero cells; type: toxicity; details: read-out: Ratio CC50/EC50
[19] = Cytotoxicity against hamster BHK-21 cells assessed as reduction in cell viability at MOI of 0.01 incubated for 48 hrs by plaque formation assay; type: toxicity, cell-based, Mesocricetus auratus
[20] = Selectivity index, ratio of CC50 for hamster BHK-21 cells to EC50 for JEV SA14-14-2 infected in hamster BHK-21 cells; type: toxicity, cell-based; details: read-out: Ratio CC50/EC50
[21] = tested on: Japanese encephalitis virus; experiment: Antiviral activity against JEV SA14-14-2 infected in hamster BHK-21 cells assessed as reduction in viral replication by plaque formation assay; type: functional, organism-based; details: SA14-14-2, BHK-21
[22] = target: T1, ATP-dependent RNA helicase DDX3X; experiment: Inhibition of recombinant DDX3X (unknown origin) helicase activity using 6-FAM-labeled dsRNA as substrate incubated for 30 mins by fluorescence based assay
[23] = tested on: HeLa; experiment: Cytotoxicity against human HeLa cells assessed as reduction in cell viability incubated for 72 hrs with replacement of medium containing compound for every 24 hrs by MTS based Cell Titer 96 viability assay; type: functional
[24] = tested on: Human immunodeficiency virus 1; experiment: Antiviral activity against recombinant HIV-1 infected in CD4+ human HeLa cells assessed as reduction in viral replication; type: functional, organism-based; details: Human immunodeficiency virus 1, HeLa
[25] = Selectivity index, ratio of CC50 for human HeLa cells to EC50 for recombinant HIV-1 infected in CD4+ human HeLa cells; type: toxicity, cell-based; details: read-out: Ratio CC50/EC50
[26] = target: T1, ATP-dependent RNA helicase DDX3X; experiment: Inhibition of DDX3X (unknown origin) helicase activity
[27] = Selectivity index, ratio of CC50 for human LucUbiNeo-ET cells to EC50 for HCV-1 infected in human LucUbiNeo-ET cells; type: toxicity, cell-based; details: read-out: Ratio CC50/EC50
[28] = tested on: Hepatitis C virus; experiment: Antiviral activity against HCV-1 infected in human LucUbiNeo-ET cells assessed as reduction in viral replication incubated for 2 days by luminometry; type: functional, organism-based, Hepacivirus hominis; details: genotype 1, LucUbiNeo-ET, 48 h
[29] = Cytotoxicity against human LucUbiNeo-ET cells assessed as reduction in cell viability by MTT assay; type: functional
[30] = Half life in mouse administered intravenously; type: ADME; details: in vivo, route iv
[31] = tested on: Hepatitis C virus; experiment: Antiviral activity against HCV-1 infected in hepatoma cells (unknown origin) assessed as reduction in viral replication; type: functional, organism-based, Hepacivirus hominis; details: genotype 1, Hepatoma cell line
[32] = Selectivity index, ratio of CC50 for human Huh-7 cells to EC50 for WNV infected in human Huh-7 cells; type: toxicity, cell-based; details: read-out: Ratio CC50/EC50
[33] = tested on: West Nile virus; experiment: Antiviral activity against WNV infected in human Huh-7 cells assessed as reduction in viral replication; type: functional, organism-based
[34] = Selectivity index, ratio of CC50 for hepatoma cells (unknown origin) to EC50 for HCV-1 infected in hepatoma cells (unknown origin); type: toxicity, cell-based; details: read-out: Ratio CC50/EC50
[35] = tested on: Hepatoma cell line; experiment: Cytotoxicity against hepatoma cells (unknown origin) assessed as reduction in cell viability; type: functional
[36] = tested on: Human immunodeficiency virus 1; experiment: Antiviral activity against HIV-1 NL4-3 infected in human H9 cells assessed as reduction in viral replication at MOI of 0.03 measured after 48 hrs by Bright-Glo Luciferase Assay; type: functional, organism-based; details: Human immunodeficiency virus 1, NL4-3, H9, 48 h
[37] = tested on: H9; experiment: Cytotoxicity against human H9 cells assessed as reduction in cell viability incubated for 72 hrs by luciferase based assay; type: functional
[38] = Selectivity index, ratio of CC50 for human H9 cells to EC50 for HIV-1 NL4-3 infected in human H9 cells; type: toxicity, cell-based; details: read-out: Ratio CC50/EC50

T1 sequence (O00571 whole entry): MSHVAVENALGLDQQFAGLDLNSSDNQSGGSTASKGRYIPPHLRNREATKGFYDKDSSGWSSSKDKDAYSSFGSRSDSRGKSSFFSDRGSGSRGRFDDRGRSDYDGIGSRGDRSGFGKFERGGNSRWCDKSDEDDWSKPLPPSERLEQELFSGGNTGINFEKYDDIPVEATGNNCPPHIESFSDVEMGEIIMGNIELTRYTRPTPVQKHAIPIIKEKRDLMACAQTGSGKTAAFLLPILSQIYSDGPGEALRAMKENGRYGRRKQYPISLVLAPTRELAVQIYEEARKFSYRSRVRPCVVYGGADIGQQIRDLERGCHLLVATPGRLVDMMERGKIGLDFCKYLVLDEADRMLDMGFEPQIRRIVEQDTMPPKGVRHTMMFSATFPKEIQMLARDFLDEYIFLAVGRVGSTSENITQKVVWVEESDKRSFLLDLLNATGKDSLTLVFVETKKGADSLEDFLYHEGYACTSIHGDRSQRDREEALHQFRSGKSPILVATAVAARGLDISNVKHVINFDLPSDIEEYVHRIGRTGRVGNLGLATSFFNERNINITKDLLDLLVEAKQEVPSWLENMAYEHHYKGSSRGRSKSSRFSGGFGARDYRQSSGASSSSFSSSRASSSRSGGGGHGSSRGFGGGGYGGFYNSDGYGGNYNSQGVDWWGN

COc1cc(/C=C2\SC(=S)N(CCC(=O)Nc3ccccc3O)C2=O)cc(OC)c1OC
Ki [1]: 3.9 µM

COc1ccc(/C=C2\SC(=S)N(CCC(=O)Nc3cccc(O)c3)C2=O)cc1
Ki [1]: 2 µM

COc1ccc(Cn2c3ncnc4c(ncn4Cc4ccc(OC)cc4)c-3nc2=O)cc1
selectivity ratio [2]: 3.5
EC50 [3]: 2 µM
EC50 [4]: 13.4 µM
EC50 [5]: 7 µM
selectivity ratio [6]: 4.2
EC50 [7]: < 5 µM
EC50 [8]: 8.5 µM
CC50 [9]: < 10 µM
selectivity ratio [10]: 3.5
selectivity ratio [11]: 1
half-life [12]: 7 h
selectivity ratio [13]: < 5
CC50 at 22 h [14]: 29.7 µM
EC50 [15]: 28.2 µM
CC50 [16]: > 30 µM
EC50 [17]: 8.5 µM
selectivity ratio [18]: 2.2

Cc1ccccc1NC(=O)Nc1cccc([N+](=O)[O-])c1
CC50 at 48 h [19]: > 50 µM
selectivity ratio [20]: > 5
EC50 [21]: 10 µM

O=[N+]([O-])c1cccc(S(=O)(=O)Nc2ccccc2O)c1
IC50 [22]: 0.36 µM

O=C(CCN1C(=O)/C(=C/c2cccc(Br)c2)SC1=S)Nc1cccc(O)c1
Ki [1]: 90 µM

OCCc1cc(Nc2ccc(F)cc2)nc(N/N=C/c2ccccc2O)n1
CC50 [23]: 65 µM
EC50 [24]: 6.5 µM
selectivity ratio [25]: 10

Oc1ccccc1/C=N/Nc1nc(Nc2cccc(Cl)c2)nc(NN2CCOCC2)n1
Ki [1]: 0.4 µM

COc1cccc(NC(=O)CCN2C(=O)/C(=C/c3ccccc3O)SC2=S)c1
Ki [1]: 10 µM

Cc1ccccc1NC(=O)Nc1ccc(-n2cc(CO)nn2)cc1
Ki [26]: 17.5 µM

C(=N\Nc1nc(Nc2ccccc2)nc(Nc2ccccc2)n1)/c1ccccc1
Ki [1]: 7.5 µM

CC(C)Cc1cn(-c2ccc(NC(=O)Nc3ccc4cnccc4c3)cc2)nn1
selectivity ratio [27]: 94
IC50 [26]: 0.15 µM
EC50 [28]: 0.9 µM
CC50 [29]: > 312 µM
half-life [30]: 5 h

CCCCCCCCCCCCCCCCCCNC1=NC(=O)C2C(N=CN2[C@@H]2O[C@H](CO)[C@@H](O)[C@H]2O)C(=O)N1 (some centres undefined)
EC50 [31]: 18 µM
selectivity ratio [32]: > 195
CC50 [9]: > 100 µM
EC50 [33]: 0.51 µM
selectivity ratio [34]: > 35
CC50 [35]: > 630 µM

Oc1ccc(Cl)cc1/C=N/Nc1nc(NCc2ccccc2)nc(NN2CCOCC2)n1
Ki [1]: 1.9 µM

COc1cc(/C=C2\SC(=S)N(CCC(=O)Nc3ccccc3Cl)C2=O)cc(OC)c1OC
Ki [1]: 0.1 µM

COc1ccc(/C=C2\SC(=S)N(CCC(=O)Nc3ccccc3OC)C2=O)cc1
Ki [1]: 11 µM

O=[N+]([O-])c1cccc(/C=N/Nc2nc(NCc3ccccc3)nc(NNc3ccc(F)cc3)n2)c1O
Ki [1]: 4 µM

O=C(CCN1C(=O)/C(=C/c2ccc3c(c2)OCO3)SC1=S)Nc1ccccc1[N+](=O)[O-]
Ki [1]: 1 µM

O=C(NCCN1C(=O)/C(=C/c2ccccc2O)SC1=S)c1cccc(Br)c1
Ki [1]: 4.2 µM

O=C(O)c1cc(Nc2nc3ccccc3[nH]2)ccc1O
IC50 [22]: 0.2 µM

Cc1ccc(Nc2nc(N/N=C/c3ccccc3O)nc(NN3CCOCC3)n2)cc1Cl
Ki [1]: 1.6 µM

CCCCc1cn(-c2ccc(NC(=O)Nc3ccccc3C(F)(F)F)cc2)nn1
half-life [12]: 5 h

CCCCc1cn(-c2ccc(NC(=O)Nc3ccccc3OC3CCCC3)cc2)nn1
IC50 [26]: 0.14 µM

CC(C)Cc1cn(-c2ccc(NC(=O)Nc3ccccc3F)cc2)nn1
IC50 [26]: 0.12 µM

Cc1cccc(NC(=O)CCN2C(=O)/C(=C/c3ccccc3O)SC2=S)c1
Ki [1]: 97 µM

Oc1ccccc1/C=N/Nc1nc(NCc2ccccc2)nc(NN2CCOCC2)n1
Ki [1]: 0.6 µM

O=C1S/C(=C\c2c(NCCO)nc3ccccn3c2=O)C(=O)N1CCc1ccccc1
Ki [1]: 0.2 µM

CCN(CC)Nc1nc(N/N=C/c2ccccc2O)nc(Nc2ccccc2)n1
Ki [1]: 0.1 µM

CC(=O)Nc1ccc(/C=N/Nc2nc(Nc3ccccc3)nc(Nc3ccccc3)n2)cc1
Ki [1]: 0.3 µM
CC50 [23]: 10 µM
EC50 [24]: 2 µM
selectivity ratio [25]: 5

O=C(CCN1C(=O)/C(=C/c2cccc(F)c2)SC1=S)Nc1ccccc1O
Ki [1]: 7.6 µM

CCCCc1cn(-c2ccc(NC(=O)Nc3ccccc3F)cc2)nn1
IC50 [26]: 0.6 µM

O=C(CCN1C(=O)/C(=C/c2ccccc2O)SC1=S)Nc1cc(F)cc(F)c1
Ki [1]: 0.5 µM

CCCCc1cn(-c2ccc(NC(=O)Nc3ccc(C)nc3)cc2)nn1
IC50 [26]: 1.5 µM

CC(=O)Nc1ccc(/C=N/Nc2nc(NCc3ccccc3)nc(Nc3ccccc3)n2)cc1
Ki [1]: 0.5 µM

CC(=O)Nc1ccc(/C=N/Nc2nc(Nc3ccccc3)nc(NN3CCOCC3)n2)cc1
Ki [1]: 2.2 µM

O=C(CCN1C(=O)/C(=C/c2ccccc2O)SC1=S)Nc1cccc(F)c1
Ki [1]: 0.3 µM
EC50 [7]: < 5 µM
CC50 [23]: 50 µM
CC50 [16]: > 100 µM
EC50 [24]: 7.5 µM
selectivity ratio [25]: 7

CC(C)Cc1cn(-c2ccc(NC(=O)Nc3cccc(F)c3)cc2)nn1
IC50 [26]: 0.2 µM

O=C(NCCN1C(=O)/C(=C/c2ccccc2O)SC1=S)c1cccc(F)c1
Ki [1]: 4.3 µM

Oc1ccccc1/C=N/Nc1nc(NCc2ccc(F)cc2)nc(NN2CCOCC2)n1
Ki [1]: 0.7 µM

O=C(O)c1ccccc1C(=O)Nc1nnc(-c2ccc(O)cc2)s1
EC50 [36]: 2.8 µM
CC50 [37]: 125 µM
selectivity ratio [38]: 45
